From ChEMBL document CHEMBL5303573, “Mapping human microbiome drug metabolism by gut bacteria and their genes” (Nature, 2019) come the findings set out here.

Structures are written as SMILES.

A short description of data set [1]: The drug is tested on Escherichia coli strain: BW25113 for biotransformation. The drug concentrations were measured before and after a 12-h incubation by liquid-chromatography-coupled mass spectrometry (LC–MS). To be noted: 2 µM.
Data set [2] in a line: The drug is tested on Bacteroides finegoldii strain: DSM17565 for biotransformation. The drug concentrations were measured before and after a 12-h incubation by liquid-chromatography-coupled mass spectrometry (LC–MS). To be noted: 2 µM.
The conditions of data set [3]: parabacteroides johnsonii, 12 h, 2 µM.
Description: The drug is tested on Parabacteroides johnsonii strain: DSM18315 for biotransformation. The drug concentrations were measured before and after a 12-h incubation by liquid-chromatography-coupled mass spectrometry (LC–MS)
The conditions of data set [4]: bacteroides eggerthii, 12 h, 2 µM.
Description: The drug is tested on Bacteroides eggerthii strain: DSM20697 for biotransformation. The drug concentrations were measured before and after a 12-h incubation by liquid-chromatography-coupled mass spectrometry (LC–MS)
The conditions of data set [5]: bacteroides thetaiotaomicron, 12 h, 2 µM.
Description: The drug is tested on Bacteroides thetaiotaomicron strain: 7330 for biotransformation. The drug concentrations were measured before and after a 12-h incubation by liquid-chromatography-coupled mass spectrometry (LC–MS)
Data set [6] can be described thus: The drug is tested on Alistipes indistinctus strain: DSM22520 for biotransformation. The drug concentrations were measured before and after a 12-h incubation by liquid-chromatography-coupled mass spectrometry (LC–MS). The conditions noted are these: 2 µM.
The nature of data set [7]: The drug is tested on Bacteroides caccae strain: ATCC43185 for biotransformation. The drug concentrations were measured before and after a 12-h incubation by liquid-chromatography-coupled mass spectrometry (LC–MS). The conditions noted are these: 2 µM.
A short description of data set [8]: The drug is tested on Odoribacter splanchnicus strain: fecal isolate for biotransformation. The drug concentrations were measured before and after a 12-h incubation by liquid-chromatography-coupled mass spectrometry (LC–MS). To be noted: 2 µM.
The nature of data set [9]: The drug is tested on Bacteroides uniformis strain: ATCC8492 for biotransformation. The drug concentrations were measured before and after a 12-h incubation by liquid-chromatography-coupled mass spectrometry (LC–MS). To be noted: 2 µM.
A short description of data set [10]: The drug is tested on Collinsella aerofaciens strain: ATCC25986 for biotransformation. The drug concentrations were measured before and after a 12-h incubation by liquid-chromatography-coupled mass spectrometry (LC–MS). To be noted: 2 µM.
Data set [11] in a line: The drug is tested on Clostridium sp. strain: fecal isolate for biotransformation. The drug concentrations were measured before and after a 12-h incubation by liquid-chromatography-coupled mass spectrometry (LC–MS). The conditions noted are these: 2 µM.
The nature of data set [12]: The drug is tested on Bacteroides cellulosilyticus strain: DSM14838 for biotransformation. The drug concentrations were measured before and after a 12-h incubation by liquid-chromatography-coupled mass spectrometry (LC–MS). The conditions noted are these: 2 µM.
The conditions of data set [13]: segatella copri, 12 h, 2 µM.
Description: The drug is tested on Prevotella copri strain: DSM18205 for biotransformation. The drug concentrations were measured before and after a 12-h incubation by liquid-chromatography-coupled mass spectrometry (LC–MS)
Data set [14] can be described thus: The drug is tested on Clostridium scindens strain: ATCC35704 for biotransformation. The drug concentrations were measured before and after a 12-h incubation by liquid-chromatography-coupled mass spectrometry (LC–MS). To be noted: 2 µM.
The nature of data set [15]: The drug is tested on Enterococcus faecalis strain: V583 for biotransformation. The drug concentrations were measured before and after a 12-h incubation by liquid-chromatography-coupled mass spectrometry (LC–MS). The conditions noted are these: 2 µM.
Data set [16] is described as follows: The drug is tested on Clostridium symbiosum strain: ATCC14940 for biotransformation. The drug concentrations were measured before and after a 12-h incubation by liquid-chromatography-coupled mass spectrometry (LC–MS). To be noted: 2 µM.
The nature of data set [17]: The drug is tested on Bifidobacterium ruminantium strain: fecal isolate for biotransformation. The drug concentrations were measured before and after a 12-h incubation by liquid-chromatography-coupled mass spectrometry (LC–MS). To be noted: 2 µM.
The nature of data set [18]: The drug is tested on Eubacterium rectale strain: ATCC33656 for biotransformation. The drug concentrations were measured before and after a 12-h incubation by liquid-chromatography-coupled mass spectrometry (LC–MS). The conditions noted are these: agathobacter rectalis, 2 µM.
For data set [19] the following is noted: parabacteroides distasonis, 12 h, 2 µM.
Description: The drug is tested on Parabacteroides distasonis strain: ATCC8503 for biotransformation. The drug concentrations were measured before and after a 12-h incubation by liquid-chromatography-coupled mass spectrometry (LC–MS)

As to `COc1cc2nc(N3CCN(C(=O)C4COc5ccccc5O4)CC3)nc(N)c2cc1OC.CS(=O)(=O)O` (stereo not drawn) [DOXAZOSIN MESYLATE], the “Bacterial Biotransformation” value is given as “Compound metabolized” in data set [1]; “Compound NOT metabolized” in data set [2]; “Compound NOT metabolized” in [3]; “Compound NOT metabolized” in [4]; “Compound NOT metabolized” in [5]; “Compound metabolized” in data set [6]. Besides, the “Bacterial Biotransformation” value in data set [7] is “Compound NOT metabolized”; in data set [8], “Compound NOT metabolized”; in [9] it was “Compound metabolized”; in [10], “Compound NOT metabolized”; in data set [11] it was “Compound metabolized”; in [12], “Compound NOT metabolized”. Besides, the “Bacterial Biotransformation” value in [13] was “Compound metabolized”; in [14], “Compound NOT metabolized”; in data set [15] it was “Compound NOT metabolized”; in [16], “Compound NOT metabolized”.

Consider `CN(C)CCC=C1c2ccccc2COc2ccccc21` [DOXEPIN], for which the “Bacterial Biotransformation” value in [1], in data set [2], in [3], in [4], in data set [5] and in data set [6] was “Compound NOT metabolized” in each case. In addition, the “Bacterial Biotransformation” value in data set [7], in data set [8], in [17], in data set [9], in [10] and in data set [12] was “Compound NOT metabolized” in each case. Also, the “Bacterial Biotransformation” value in [13], in data set [14], in data set [18], in data set [15] and in data set [16] was “Compound NOT metabolized” each time.

Take `CC(C)(C)N.CCC[C@H](N[C@@H](C)C(=O)N1[C@H](C(=O)O)C[C@@H]2CCCC[C@@H]21)C(=O)OCC` [PERINDOPRIL ERBUMINE]: the “Bacterial Biotransformation” value in data set [19], in data set [1], in data set [2], in [4], in data set [6] and in data set [7] was “Compound NOT metabolized” in each case. Also, the “Bacterial Biotransformation” value in data set [8], in data set [17], in data set [9], in [10], in [11] and in data set [12] was “Compound NOT metabolized” each time. The “Bacterial Biotransformation” value in [14], in [15] and in [16] was “Compound NOT metabolized” in each case.
